From patent US20230407243A1, “GENETIC PLATFORM TO INVESTIGATE THE FUNCTIONS OF BACTERIAL DRUG EFFLUX PUMPS” (priority 2022, published 2023)

What was measured:
Type in all cases: cell-based, Escherichia coli
EKO-35-Pore = assay: MIC susceptibility profiling, porinated strain
Procedure: (§1) For genomic integration of the pore, the fhuA ΔC/Δ4L gene and the adjacent gentamicin resistance cassette were amplified using a high-fidelity polymerase and the fhuA_40_Up/gImS_3680_Low primers (Table 4). Integration of the pore gene was performed as described above. The pore gene was introduced into the intergenic region between the glmS and pstS genes, with gene expression under the control of a constitutive promoter (Kearse, M. et al., 2012). Genomic integrations were verified using PCR (Primers: pstS_520_Up/glmS_3680_Low, Table 4). Successful integrations were transformed with pCP20 to remove the gentamicin resistance cassette as previously described. Activity of the pore was confirmed through susceptibility testing with the large antibiotic vancomycin prior to phenotypic profiling and further susceptibility testing.
(§2) Single colonies were used to inoculate 3 mL of LB followed by incubation at 37° C. for 18 h with aeration at 220 rpm. The bacterial cells were harvested by centrifugation and resuspended in phosphate buffered saline (PBS) ([pH 7.4], 137 mM NaCl (Bioshop), 2.7 mM KCl (Bioshop), 10 mM Na2PO4 (Bioshop) and 1.8 mM K2PO4) to an OD600 nm˜1.0, followed by 1/2000 dilution into MHB II.
(§3) To a 384-well microtiter plate (Corning, untreated polystyrene), 500 nL of compound was dispensed, in duplicate, and serially titrated 2-fold using an Echo 550 acoustic liquid dispenser (Labcyte Inc.). […] As a solvent control, 500 nL of DMSO was applied to wells that contained no compound. Using a multichannel pipette, 50 μL of the prepared bacterial inoculum was applied to each well. To enable background correction post-incubation, the OD600 nm was measured (Biotek Synergy Neo2 microplate reader) prior to incubation. The plates were incubated at 37° C. with aeration at 900 rpm for 18 h. The plates were equilibrated to room temperature and the OD600 nm measured using a BioTek Synergy Neo2 microplate reader. Data was analyzed in both Prism (GraphPad, Version 9.2.0) and Microsoft Excel (Version 16.53). Raw data were input into Microsoft Excel and the pre-incubation OD600 nm measurements were subtracted from the post-incubation OD600 nm measurements. These corrected measurements were input into Prism 9 as a grouped analysis. […] All other MIC values were adjusted accordingly and visualized using the single-color scale grouped heat map function. Identification of compound chemical properties was achieved using DataWarrior (Version 5.5.0). Using PubChem, the SMILES chemical notation for each compound was obtained and compiled in Microsoft Excel. The resulting spreadsheet was input into DataWarrior and properties were calculated from the compound chemical structures.

EKO-35 araC::emrKY Pore = assay: MIC susceptibility profiling, porinated efflux platform
Procedure: as §1, §2, §3

[1] = system: EKO-35 araC::acrBD408A Pore; assay: as above
Procedure: as §1, §2, §3

EKO-35 araC::mdtEF Pore = assay: as above
Procedure: as §1, §2, §3

EKO-35 araC::mdtBC Pore = assay: as above
Procedure: as §1, §2, §3

EKO-35 araC::acrB Pore = assay: as above
Procedure: as §1, §2, §3

EKO-35 araC::emrAB Pore = assay: as above
Procedure: as §1, §2, §3

EKO-35 araC::acrEF Pore = assay: as above
Procedure: as §1, §2, §3

EKO-35 araC::acrD Pore = assay: as above
Procedure: as §1, §2, §3

EKO-35 araC::mexCD Pore = assay: as above
Procedure: as §1, §2, §3

EKO-35 araC::macAB Pore = assay: as above
Procedure: as §1, §2, §3

EKO-35 araC::mdtBC = assay: MIC susceptibility profiling, efflux platform
Procedure: as §2, §3

EKO-35 araC::acrEF = assay: MIC susceptibility profiling, efflux platform
Procedure: as §2, §3

EKO-35 araC::acrBD408A = assay: MIC susceptibility profiling, efflux platform
Procedure: as §2, §3

E. coli EKO-35 = assay: microbe, parasite or virus in culture
Procedure: as §2, §3

E. coli ΔtolC = assay: microbe, parasite or virus in culture; conditions: technical duplicate
Procedure: as §2, §3

[2] = system: wild-type E. coli K-12 str. BW25113; assay: microbe, parasite or virus in culture; conditions: technical duplicate
Procedure: as §2, §3

wild-type (WT) K-12-Pore = assay: microbe, parasite or virus in culture; conditions: technical duplicate
Procedure: as §1, §2, §3

ΔtolC-Pore = assay: microbe, parasite or virus in culture; conditions: technical duplicate
Procedure: as §1, §2, §3

[3] = Table 14A, porinated, technical duplicate
[4] = Table 13B, non-porinated, technical duplicate
[5] = Table 13A, non-porinated, technical duplicate

C[C@H](CCC(=O)NCCS(=O)(=O)[O-])[C@H]1CC[C@H]2[C@@H]3CC[C@@H]4C[C@H](O)CC[C@]4(C)[C@H]3C[C@H](O)[C@]12C.[Na+] [sodium taurodeoxycholate]
Fold changes of MICs (EKO-35-Pore; EKO-35-Pore compared to EKO-35-Pore (reference)): 1 fold
Minimum inhibitory concentration (MIC), Pore EKO-35 (EKO-35-Pore; Table 10, with pore, technical duplicate): 250 µg/mL
Minimum inhibitory concentration, EKO-35-Pore (EKO-35-Pore; [3]): 250 µg/mL
Fold changes of MICs (EKO-35 araC::emrKY Pore; EKO-35 araC::emrKY Pore compared to EKO-35-Pore): 1 fold
Minimum inhibitory concentration (EKO-35 araC::emrKY Pore; EKO-35 araC::emrKY Pore, technical duplicate): 250 µg/mL
Fold changes of MICs ([1]; EKO-35 araC::acrBD408A Pore compared to EKO-35-Pore): 1 fold
Minimum inhibitory concentration ([1]; EKO-35 araC::acrBD408A Pore, technical duplicate): 250 µg/mL
Fold changes of MICs (EKO-35 araC::mdtEF Pore; EKO-35 araC::mdtEF Pore compared to EKO-35-Pore): 4 fold
efflux pump-mediated resistance vs EKO-35-Pore (EKO-35 araC::mdtEF Pore; MdtEF with the pore): increased resistance
Minimum inhibitory concentration, EKO-35 araC::mdtEF Pore (EKO-35 araC::mdtEF Pore; [3]): 1000 µg/mL
Fold changes of MICs (EKO-35 araC::mdtBC Pore; EKO-35 araC::mdtBC Pore compared to EKO-35-Pore): 4 fold
Minimum inhibitory concentration (EKO-35 araC::mdtBC Pore; EKO-35 araC::mdtBC Pore, technical duplicate): 1000 µg/mL
efflux pump-mediated resistance vs EKO-35-Pore (EKO-35 araC::mdtBC Pore; MdtBC with the pore): associated MdtBC with resistance
efflux pump-mediated resistance vs EKO-35-Pore (EKO-35 araC::acrB Pore; AcrB with the pore): increased resistance
Fold changes of MICs (EKO-35 araC::acrB Pore; EKO-35 araC::acr-B Pore compared to EKO-35-Pore): 4 fold
Minimum inhibitory concentration, EKO-35 araC::acrB Pore (EKO-35 araC::acrB Pore; [3]): 1000 µg/mL
Fold changes of MICs (EKO-35 araC::emrAB Pore; EKO-35 araC::emrAB Pore compared to EKO-35-Pore): 2 fold
Minimum inhibitory concentration (EKO-35 araC::emrAB Pore; EKO-35 araC::emrAB Pore, technical duplicate): 500 µg/mL
efflux pump-mediated resistance vs EKO-35-Pore (EKO-35 araC::acrEF Pore; AcrEF with the pore): increased resistance
Fold changes of MICs (EKO-35 araC::acrEF Pore; EKO-35 araC::acrEF Pore compared to EKO-35-Pore): 4 fold
Minimum inhibitory concentration, EKO-35 araC::acrEF Pore (EKO-35 araC::acrEF Pore; [3]): 1000 µg/mL
Fold changes of MICs (EKO-35 araC::acrD Pore; EKO-35 araC::acrD Pore compared to EKO-35-Pore): 4 fold
Minimum inhibitory concentration, EKO-35 araC::acrD Pore (EKO-35 araC::acrD Pore; [3]): 1000 µg/mL
Fold changes of MICs (EKO-35 araC::mexCD Pore; EKO-35 araC::mexCD Pore compared to EKO-35-Pore): 4 fold
Minimum inhibitory concentration (EKO-35 araC::mexCD Pore; EKO-35 araC::mexCD Pore, technical duplicate): 1000 µg/mL
efflux pump-mediated resistance vs EKO-35-Pore (EKO-35 araC::mexCD Pore; MexCD, OM compromised): increased resistance
Fold changes of MICs (EKO-35 araC::macAB Pore; EKO-35 araC::macAB Pore compared to EKO-35-Pore): 1 fold
Minimum inhibitory concentration (EKO-35 araC::macAB Pore; EKO-35 araC::macAB Pore, technical duplicate): 250 µg/mL
Fold change of MICs (EKO-35 araC::mdtBC; EKO-35 araC::mdtBC compared to EKO-35): 2 fold
Minimum Inhibitory Concentration, EKO-35 araC::mdtBC (EKO-35 araC::mdtBC; [4]): 1000 µg/mL
Fold change of MICs (EKO-35 araC::acrEF; EKO-35 araC::acrEF compared to EKO-35): 2 fold
Minimum Inhibitory Concentration, EKO-35 araC::acrEF (EKO-35 araC::acrEF; [5]): 1000 µg/mL
Fold change of MICs (EKO-35 araC::acrBD408A; EKO-35 araC::acrBD408A compared to EKO-35): 2 fold
Minimum Inhibitory Concentration, EKO-35 araC::acrBD408A (EKO-35 araC::acrBD408A; [4]): 1000 µg/mL
Fold change of MICs (E. coli EKO-35; EKO-35 compared to EKO-35 (reference)): 1 fold
Minimum inhibitory concentration (MIC), EKO-35 (E. coli EKO-35; Table 10, without pore, technical duplicate): 500 µg/mL
Minimum Inhibitory Concentration, EKO-35 (E. coli EKO-35; [5]): 500 µg/mL
Minimum inhibitory concentration (MIC), ΔtolC (E. coli ΔtolC; Table 10, without pore): 250 µg/mL
Minimum Inhibitory Concentration, ΔtolC (E. coli ΔtolC; Table 13A, non-porinated): 250 µg/mL
Minimum inhibitory concentration (MIC), K-12 ([2]; Table 10, without pore): 1000 µg/mL
Minimum Inhibitory Concentration, K-12 ([2]; Table 13A, non-porinated): 1000 µg/mL
Minimum inhibitory concentration (MIC), Pore K-12 (wild-type (WT) K-12-Pore; Table 10, with pore): 1000 µg/mL
Minimum inhibitory concentration, K-12 (WT)-Pore (wild-type (WT) K-12-Pore; Table 14A, porinated): 1000 µg/mL
Minimum inhibitory concentration (MIC), Pore ΔtolC (ΔtolC-Pore; Table 10, with pore): 250 µg/mL
Minimum inhibitory concentration, ΔtolC-Pore (ΔtolC-Pore; Table 14A, porinated): 250 µg/mL
